Data from patent publication EP1161417B1, “METHODS AND COMPOSITIONS FOR TREATING LEUKEMIA” (HSC Research and Development Limited Partnership, priority 1999, dated 2000).

Legend:
Jak2 kinase = target: T1, Jak2 kinase (Homo sapiens, UniProt O60674); assay: in vitro kinase assay on Jak2 immunoprecipitated from G2 cell lysate; type: biochemical; settings: scanning autoradiographs of the kinase assays
T1 construct: Jak2 kinase was immunoprecipitated from a 1% Triton-X100 lysate of 10x10^6 G2 cells; endogenous in cells; host or cells: G2 pre-B leukemia cell line
T1 sequence (O60674 whole entry): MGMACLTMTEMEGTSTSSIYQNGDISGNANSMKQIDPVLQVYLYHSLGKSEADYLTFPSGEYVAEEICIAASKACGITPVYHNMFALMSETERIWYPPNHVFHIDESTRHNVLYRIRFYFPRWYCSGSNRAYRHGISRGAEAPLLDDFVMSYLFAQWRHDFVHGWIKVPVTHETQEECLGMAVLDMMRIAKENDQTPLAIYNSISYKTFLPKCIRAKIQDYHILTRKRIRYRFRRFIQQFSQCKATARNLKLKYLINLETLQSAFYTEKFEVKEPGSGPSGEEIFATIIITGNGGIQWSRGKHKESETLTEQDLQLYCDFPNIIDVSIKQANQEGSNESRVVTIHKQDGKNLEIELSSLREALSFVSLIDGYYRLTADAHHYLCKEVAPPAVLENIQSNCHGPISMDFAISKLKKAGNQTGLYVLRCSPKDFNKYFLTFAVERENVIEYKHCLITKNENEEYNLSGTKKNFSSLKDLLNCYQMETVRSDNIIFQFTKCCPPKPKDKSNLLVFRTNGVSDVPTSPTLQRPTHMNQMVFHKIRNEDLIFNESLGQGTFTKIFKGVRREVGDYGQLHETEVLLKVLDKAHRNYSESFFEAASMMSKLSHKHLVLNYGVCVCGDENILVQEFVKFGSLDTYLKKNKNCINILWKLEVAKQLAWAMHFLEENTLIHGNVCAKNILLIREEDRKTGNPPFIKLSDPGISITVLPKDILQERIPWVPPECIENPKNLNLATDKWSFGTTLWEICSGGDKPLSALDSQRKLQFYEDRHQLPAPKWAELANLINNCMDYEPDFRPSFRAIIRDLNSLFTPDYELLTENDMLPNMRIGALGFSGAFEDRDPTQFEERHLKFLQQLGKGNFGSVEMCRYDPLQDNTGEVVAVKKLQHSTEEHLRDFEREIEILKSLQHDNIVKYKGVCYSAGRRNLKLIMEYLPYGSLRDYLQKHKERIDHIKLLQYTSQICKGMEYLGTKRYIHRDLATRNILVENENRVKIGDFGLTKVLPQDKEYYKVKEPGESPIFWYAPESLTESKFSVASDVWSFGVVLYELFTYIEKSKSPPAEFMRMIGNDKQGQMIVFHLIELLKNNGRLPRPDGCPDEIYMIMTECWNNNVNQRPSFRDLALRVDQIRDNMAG
Protocol: Compounds chosen on the basis of their ability to inhibit the growth (colony formation) of the pre-B leukemia cell line G2 were tested for inhibition of Jak2 kinase.
Jak2 kinase was immunoprecipitated from a 1% Triton-X100 lysate of 10x10^6 G2 cells. An in vitro kinase assay was performed on the immunoprecipitated Jak2 in the presence or absence of varying concentrations of the compounds AG 1977, AG 1978, AG 2009 and AG 2010.
Stock solutions of 100mM tyrphostin were made in 100% DMSO and further dilutions made in 10% DMSO. Control kinase assays carried out in the presence of DMSO concentrations of 5-30% alone were unaffected by its presence.
Initial experiments were done with tyrphostin concentrations of 0.1, 1.0 and 10µM. These concentrations had no affect on the kinase activity of Jak2. […]

G2 ALL cells = assay: clonogenic assay, inhibition of colony formation of ALL cell line G2; type: cell-based, human
Protocol: Inhibition of colony formation was studied by methods described previously (Kamel-Reid et al., (1992), Leukemia, v. 6, pp. 8-17; Meydan et al., (1996), Nature, v. 379, pp. 645-648).
ALL cell lines A1 (at 8x10^5 cells/ml), C1 (at 4x10^4 cells/ml) and G2 (at 1.15x10^6 cells/ml) were plated in 1 ml volumes, in the absence of exogenous growth factors, into 35 mm petri dishes (Nunc, Gibco) containing alpha MEM (Gibco) plus 10% FCS (Cansera Rexdale, Ont.) in 0.9% (vol/vol) methylcellulose (Fluka, Switzerland). Cultures were set up at 37°C with 5% CO2 in a humidified atmosphere and 10 uM of a selected tyrphostin was added. Colonies consisting of more than 20 cells were counted at 12 days (A1), 5 days (C1) and 14 days (G2) using an inverted microscope. Similar results were obtained with A1 and C1.
Various concentrations of tyrphostins were tested for inhibition of ALL cells in the clonogenic assay described in Example 2. Compounds AG 1977. 1978, 2007, 2008, 2009 and 2010 were tested against ALL cell lines A1, C1 and G2 in doses ranging from nanomolar to micromolar values.

normal bone marrow cells = assay: modified CFU-GEMM clonogenic assay on normal bone marrow cells; type: cell-based, human; settings: 40µM
Protocol: Compounds showing inhibition of ALL colony formation were examined for their effect on normal bone marrow cells using a modified CFU-GEMM clonogenic assay.
The assay was performed according to Fauser and Messner (1978), Blood, v. 52, pp. 1243-8, and Messner and Fausser (1980), Blut, v. 41, pp. 327-333, with some variations. In brief, heparinized bone marrow cells were layered over Percoll (Pharmacia Fine Chemical. Piscataway N.J.) at a density of 1.077 gm/ml and centrifuged at 400 g at 4°C for 10 min. to remove neutrophils and RBCs. The fractionated bone marrow cells at 2x10^5 cells/ml were cultured in IMDM (OCI, Toronto) containing 0.9% (vol/vol) methylcellulose supplemented with 30% FCS (Cansera Rexdale, Ont.) or normal human plasma, a cocktail of cytokines consisting of G-CSF (10 ng/ml. Amgen), IL-3 (40 U/ml, Immunex), MGF (50 ng/ml, Immunex), Erythropoietin (2u/ml, Epprex) or TPO (10 ng/ml, Amgen) and 5x10^-5 2-mercaptoethanol. The culture mixture was plated in 1 ml volumes into 35 mm petri dishes and incubated at 37°C with 5% CO2 in a humidified atmosphere with concentrations of tyrphostin up to 40 µm.

Structure (SMILES)	%inhibition of kinase activity (Jak2 kinase; 5µM tyrphostin) [%]	%inhibition of kinase activity (Jak2 kinase; 25µM tyrphostin) [%]	%inhibition of kinase activity (Jak2 kinase; 50µM tyrphostin) [%]	inhibition at 0.016 µM (G2 ALL cells; Homo sapiens, dose of 16nM, G2 cells) [%]	clonogenic inhibition (G2 ALL cells; against G2 cells, dose responsive (Fig. 13), compared with AG 1977, 1978, 2007, 2008, 2010)	differential therapeutic index (G2 ALL cells; survival curve of normal BM and G2 colonies (Fig. 14))	inhibition of normal bone marrow colonies (normal bone marrow cells)
N#C/C(=C\c1cc(O)c(O)c(CSCc2ccccc2)c1)C(=O)NCc1ccccc1 [AG 1977, N-benzyl-2-cyano-3-(3',4'-dihydroxy-5'-methylenethiobenzylphenyl) acrylamide]	23	14	15	–	–	–	–
N#C/C(=C\c1cc(O)c(O)c(CSc2ccccc2)c1)C(=O)NCc1ccccc1 [AG 1978, N-benzyl-2-cyano-3-(3',4-dihydroxy-5'-methylenethiophenylphenyl) acrylamide]	10	13	46	–	–	–	–
N#C/C(=C\c1cc(O)c(O)c(CSCCc2ccccc2)c1)C(=O)NCc1ccccc1 [AG 2009, N-benzyl-2-cyano-3-(3',4'-dihydroxy-5'-(methylenethioethylphenyl)phenyl) acrylamide]	0	0	8	> 50	most potent clonogenic inhibition	greater than 2 logs	–
N#C/C(=C\c1cc(O)c(O)c(CSCCCc2ccccc2)c1)C(=O)NCc1ccccc1 [AG 2010, N-benzyl-2-cyano-3-(3',4'-dihydroxy-5'-(methylenethiopropylphenyl)phenyl) acrylamide]	5	5	39	–	–	–	significant inhibition
